Tests used:
[1] = Daunorubicin retention in liposomes in blood after intravenous injection (time course); type: in vivo, Balb/c mice; settings: low-cholesterol liposomes DSPC/DSPE-PEG2000 (95:5); citrate 600 mOsm/kg (300 mM) in relation to 300 mOsm/kg (150 mM); i.v.; 1, 4, 24 h
Protocol: DSPC/DSPE-PEG2000 liposomes (95:5 mole ratio) containing 150 or 300 mM citrate (300 or 600 mOsm/kg), pH 4 and DSPC/Cholesterol (55:45 mole ratio) and DSPC/Cholesterol/DSPE-PEG2000 (50:45:5 mole ratio) liposomes containing 150 mM citrate, pH 4 were prepared as described in Example 1. Liposomes were subsequently combined with daunorubicin at a 0.2:1 drug to lipid mole ratio. To facilitate drug loading, the mixtures were incubated at 40° C. for 60 minutes.
The resulting daunorubicin-containing liposomes were administered to Balb/c female mice at a lipid dose of 165 μmoles/kg as detailed above. Blood samples were removed at 1, 4 and 24 hours post administration by cardiac puncture (3 mice per time point). Lipid levels were determined by liquid scintillation counting. Daunorubicin was extracted from plasma samples and quantified as follows: a defined volume of plasma was adjusted to 200 μL with distilled water followed by addition of 600 μL of distilled water, 100 μL of 10% SDS and 100 μL of 10 mM H2SO4. This solution was mixed and 2 mLs of 1:1 isopropanol/chloroform was added followed by vortexing. […] The bottom organic layer was removed and assayed for fluorescence intensity at 500 nm as the excitation wavelength (2.5 nm bandpass) and 550 nm as an emission wavelength (10 nm bandpass) and using an absorbance wavelength of 480 nm.

[2] = Daunorubicin retention 4 hours after intravenous injection, varying internal citrate; type: in vivo, Balb/c mice; settings: DSPC/DSPE-PEG2000 (95:5); 100, 150 and 200 mM internal citrate (about 200, 300, 400 mOsm/kg), versus 250 and 300 mM; 4 hours after i.v.
Protocol: Daunorubicin was loaded at a 0.2:1 drug-to-lipid mole ratio with the methods detailed above into each of the five liposomal formulations. The resulting liposomes were administered to female Balb/c mice at a lipid dose of 165 μmoles/kg in a final volume of 200 μL immediately after preparation (within 1-2 hrs). Blood samples were removed 4 hours after administration by cardiac puncture (3 mice per time point). Lipid and daunorubicin levels were determined as described previously and percent initial drug-to-lipid ratio was reported as the mean±SD.

[3] = Freeze/thaw stability of DSPC/DSPG liposomes (drug-to-lipid ratio and size) at -20 or -70 C for 24 hours; type: physicochemical; settings: 0-20 mole % cholesterol, 250 mM CuSO4 internal, frozen at -20 C and -70 C for 24 hours
Protocol: FUDR and irinotecan were loaded into cholesterol-free liposomes containing a low osmolarity internal solution and drug retention and liposome size were measured prior to and after freezing. DSPC/DSPG liposomes containing 0-20 mole % cholesterol, 20 mole % DSPG and passively entrapped FUDR were prepared as described previously and hydrated in 250 mM CuSO4 (<500 mOsm/kg). The MLVs were extruded at 70° C. as detailed above and buffered exchanged into saline and then into 300 mM sucrose, 20 mM Hepes, 30 mM EDTA (SHE), pH 7.4 using a hand-held tangential flow column. The sample was then further exchanged into 300 mM sucrose, 20 mM Hepes, pH 7.4 to remove residual EDTA. The liposomes were subsequently loaded with irinotecan at a drug-to-lipid mole ratio of 0.1:1 by mixing the two solutions at 50° C. for five minutes. The dual-loaded liposomes were then buffered exchanged into HBS using tangential flow to remove any unencapsulated drug.
The influence of freezing on liposome stability was determined by freezing the liposomes at either −20° C. or −70° C. for 24 hours. […] Lipid and FUDR levels were quantified using liquid scintillation and absorbance at 370 nm was used to determine irinotecan concentration. Particle sizing of the liposomes was also determined prior to and after freezing using quasi-elastic light scattering.

[4] = Vincristine retention in liposomes in blood after intravenous injection of Balb/c mice; type: in vivo; settings: i.v., 1, 4, 24 h
Protocol: Solutions of lipids in chloroform were combined to give a 95:5 molar ratio of DSPC/DSPE-PEG2000 or a 55:45 molar ratio of DSPC/Cholesterol, with trace amounts of ^14C-cholesteryl hexadecyl ether (^14C-CHE). The resulting mixtures were dried under a stream of nitrogen gas and placed in a vacuum pump overnight. The samples were hydrated at 70° C. with either 300 mM citrate, pH 4.0 (about 600 milliosmoles/kg (mOsm/kg)) or 150 mM citrate buffer, pH 4.0 (about 300 mOsm/kg) and passed through an extrusion apparatus (Northern Lipids Inc., Vancouver, BC) ten times with two 100 nm pore size polycarbonate filters at 70° C. Average liposome size was determined by quasi-elastic light scattering using a NICOMP 370 submicron particle sizer operating at a wavelength of 632.8 nm. The resulting liposomes were applied to a Sephadex G50 column equilibrated with HBS (20 mM HEPES, 150 mM NaCl, about 320 mOsm/kg), pH 7.45 to exchange the external liposomal buffer. […]
Vincristine-containing liposomes were administered intravenously to Balb/c mice at a lipid dose of 165 μmoles/kg in a final volume of 200 μL immediately after preparation (within 1-2 hrs). […] Lipid and vincristine levels were quantified by liquid scintillation counting and the values were reported as the mean±standard deviation (SD).

[5] = Idarubicin retention in liposomes in blood after intravenous injection; type: in vivo, Balb/c mice; settings: cholesterol-free DSPC/DSPE-PEG2000 (95:5); 300 mM citrate (>500 mOsm/kg) in relation to 100 and 150 mM (<500 mOsm/kg); i.v.; 0.5-24 h
Protocol: DSPC/DSPE-PEG2000 (95:5 mole ratio) liposomes containing the non-exchangeable marker ^3H-CHE were prepared as described in Example 1, except that lipid films were hydrated with 100, 150, 200, 250 or 300 mM citrate, pH 4.0 (corresponding to osmolarity levels of about 200, 300, 400, 500 or 600 mOsm/kg, respectively).
DSPC/DSPE-PEG2000 (95:5 mole ratio) liposomes prepared with 100, 150 and 300 mM citrate were also loaded with idarubicin at a drug to lipid mole ratio of 0.25:1. Loading was facilitated by incubating the drug and liposomes at 37° C. for 60 minutes. Liposomes were administered to Balb/c mice as indicated and blood samples were removed by cardiac puncture at 0.5, 1, 2, 4 and 24-hours post administration (3 mice per time point). Idarubicin concentration was quantitated using fluorescence intensity at 485 nm as the excitation wavelength and 535 nm as an emission wavelength and using an absorbance wavelength of 482 nm.

## COc1cccc2c1C(=O)c1c(O)c3c(c(O)c1C2=O)C[C@@](O)(C(C)=O)C[C@@H]3O[C@H]1C[C@H](N)[C@H](O)[C@H](C)O1 [daunorubicin]
[1]
  daunorubicin retention (percent initial daunorubicin-to-lipid ratio remaining in the blood): compromised
[2]
  retention of daunorubicin (percent initial drug-to-lipid ratio in the blood): optimal retention

## CCc1c2c(nc3ccc(OC(=O)N4CCC(N5CCCCC5)CC4)cc13)-c1cc3c(c(=O)n1C2)COC(=O)[C@]3(O)CC [irinotecan]
[3]
  retention of irinotecan after freezing (drug-to-lipid ratio): effectively retained

## CC[C@]1(O)C[C@H]2CN(CCc3c([nH]c4ccccc34)[C@@](C(=O)OC)(c3cc4c(cc3OC)N(C=O)[C@H]3[C@@](O)(C(=O)OC)[C@H](OC(C)=O)[C@]5(CC)C=CCN6CC[C@]43[C@@H]65)C2)C1 [vincristine]
[4]; cholesterol containing liposomes DSPC/cholesterol (55:45), 150 vs 300 mM citrate
  retention of vincristine (percent initial vincristine-to-lipid weight ratio in the blood): independent of the osmolarity of the intraliposomal solution
[4]; low-cholesterol liposomes DSPC/DSPE-PEG2000 (95:5), internal citrate 300 mOsm/kg (150 mM) compared to 600 mOsm/kg (300 mM)
  retention of vincristine (percent initial vincristine-to-lipid weight ratio in the blood): significantly enhanced

## CC(=O)[C@]1(O)Cc2c(O)c3c(c(O)c2[C@@H](O[C@H]2C[C@H](N)[C@H](O)[C@H](C)O2)C1)C(=O)c1ccccc1C3=O [idarubicin]
[5]
  idarubicin retention (idarubicin-to-lipid mole ratio in the blood): significantly decreased
